Measurements reported in patent US11384385B2, “Method for predicting therapeutic effects of irinotecan, and kit for same” (Yamaguchi University, priority 2017, dated 2022).
Where two headings read alike, the source gives them in different places.

What was measured:
[1] = tested on: colorectal cancer (stage IV); assay: Therapeutic effect of irinotecan on cancer evaluated by RECIST (CR and PR = therapeutic effect), by rs1980576 genotype; assay type: in vivo, human; conditions: for therapeutic effect observed (CR+PR): rs1980576 wild-type homozygote (A/A)
Method: Analysis objects were 140 cases among 155 Japanese colorectal cancer (stage IV) cases who were administered with irinotecan excluding cases who were administered with a reduced amount of irinotecan, UGT1A1*6 (homo), UGT1A1*28 (homo), and their compound heterogeneous cases and determined for the therapeutic effect and 66 subpopulation cases (FOLFIRI cases with a unified regimen) among the 140 cases. FOLFIRI is one of standard treatments for colorectal cancer and using irinotecan simultaneous with treatment with a combination of fluorouracil and 1-leucovorin. The 140 cases were Japanese colorectal cancer patients treated with a regimen including irinotecan. The regimen in this Example includes combination therapy, in addition to irinotecan, with FOLFIRI using fluorouracil and 1-leucovorin, […] using capecitabine, IRIS using S-1, or an anti-EGFR antibody agent ([…], Cetuximab, or Panitumumab). Comprehensive analysis (WES analysis) of the prepared genome DNA was performed by the same method as described in WO2016/132736 (PCT/JP2016/000793). That is, three types of cases: cases (n=5) as a control group in which UGT1A genetic polymorphisms (seven positions of UGT1A1*6, *27, and *28, UGT1A7 (387T>G and 622T>C), UGT1A9*1b, and UGT1A1*60) were all homozygotes being low in side effect risk and no side effect from irinotecan were observed; cases (n=5) as a case group in which although the UGT1A genetic polymorphisms were the same as those in the control group, side effects (Grade 3, entire course) were observed; and cases (n=5) in which any of the UGT1A genetic polymorphisms was a heterozygote and a side effect was observed from the first administration of irinotecan (Grade 4), were established, and the case and control groups were analyzed. […] The genetic polymorphisms and the side effect frequency and the response rates were statistically analyzed using a Cochran-Armitage trend test. […] Accordingly, 11 single nucleotide polymorphisms in total: the above-mentioned single nucleotide polymorphisms a) to f) and single nucleotide polymorphisms g) UGT1A1*6, h) UGT1A1*60, i) UGT1A7 (387T>G), j) UGT1A7 (622T>C), and k) UGT1A9*1b known to be involved in side effects from irinotecan, were analyzed for a relationship with the therapeutic effects of irinotecan on cancer. […] CR and PR were determined to have a therapeutic effect; and SD and PD were determined to have no therapeutic effect. […] FIGS. 1 and 2 show the analysis results of 140 cases determined for therapeutic effects, and FIGS. 3 and 4 show the analysis results of 66 subpopulation cases among the 140 cases. […] In addition, in FIGS. 1 to 4, “Odds ratio” is calculated as an odds ratio of the therapeutic effects (efficacy) of irinotecan on cancer in a wild-type homozygote or a mutant-type homozygote by Fisher's exact test.

cancer = conditions: general response rate; cited from earlier work
[2] = FIG. 5, Table 2 of WO2016/132736, cited from earlier work
[3] = rs1980576 mutant-type homozygote (G/G)

CCc1c2c(nc3ccc(OC(=O)N4CCC(N5CCCCC5)CC4)cc13)-c1cc3c(c(=O)n1C2)COC(=O)[C@]3(O)CC [irinotecan, (S)-4,11-diethyl-3,4,12,14-tetrahydro-4-hydroxy-3,14-dioxo-1H-pyrano[3′,4′:6,7]indolizino[1,2-b]quinolin-9-yl ester, CPT-11,1,4′-bipiperidine-1′-carboxylic acid]
possibility of a therapeutic effect of irinotecan on cancer ([1]; rs1980576 heterozygote (A/G)): high | therapeutic effect [1, 3]: low | therapeutic effect observed (CR+PR) ([1]; 66 FOLFIRI cases only (FIG. 3)): 43% | therapeutic effect observed (CR+PR) ([1]; 140 Japanese colorectal cancer cases, regimen including irinotecan (FIG. 1)): 38% | response rate of irinotecan generally (cancer): about 32% | risk of side effects ([2]; rs1980576 heterozygote (A/G)): low | risk of side effects [2, 3]: high | risk of side effects ([2]; rs1980576 wild-type homozygote (A/A)): low
